Patent US9546150B2, “Substituted quinazolin-4-ones for inhibiting ubiquitin specific protease 7” (HYBRIGENICS SA, priority 2011, dated 2017)

Assays:
UCH-L3 [1] = target: T1, UCH-L3 (Homo sapiens, UniProt P15374); assay: UCH-L3 activity assay, Ub-AMC substrate; type: biochemical; conditions: UbAMC substrate 300 nM, UCH-L3 13 pM
T1 sequence (P15374 1-230): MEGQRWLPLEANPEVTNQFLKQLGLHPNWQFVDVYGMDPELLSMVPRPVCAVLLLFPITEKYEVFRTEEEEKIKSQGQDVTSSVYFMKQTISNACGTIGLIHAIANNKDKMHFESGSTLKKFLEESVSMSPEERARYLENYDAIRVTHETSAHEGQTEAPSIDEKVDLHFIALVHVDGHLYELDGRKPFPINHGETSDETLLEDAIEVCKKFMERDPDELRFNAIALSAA
Protocol: UCH-L3 was diluted in USP buffer (50 mM Tris HCl; 0.5 mM EDTA; 5 mM DTT; 0.01% Triton X-100; Bovine Serum Albumin 0.05 mg·ml^−1 pH7.6). Compounds stocks (100 mM) were stored at −20° C. in DMSO. Compounds were tested at different concentrations: from 200 μM to 91 nM.
(§1) Reactions were performed as duplicates in Black 384 well plates (small volume microplates; Greiner; 10 μl final reaction volume). The substrate concentration for UCH-L3 was 300 nM Ub-AMC (Boston Biochem). The concentration of the enzyme (UCH-L3) in specificity assays was 13 pM. The concentrations were determined in order to perform specificity assays under initial velocities at fixed substrate concentration. Compounds were pre-incubated with enzymes for 30 minutes at 25° C. Reactions were initiated by addition of substrate to the plates containing the enzymes (+/− compounds) diluted in assay buffer. Reactions were incubated for 60 minutes at 37° C. Reactions were stopped by adding acetic acid (100 mM final). Readings were performed on a Pherastar Fluorescent Reader (BMG). λ Emission 380 nm; λ Excitation=460 nm.

Caspase 3 = target: T2, Caspase 3 (Homo sapiens, UniProt P42574); assay: Caspase 3 activity assay, Ac-DEVD-AMC substrate; type: biochemical; conditions: Ac-DEVD-AMC 250 nM, Caspase 3 1.6 nM
T2 sequence (P42574 29-175 limits assumed): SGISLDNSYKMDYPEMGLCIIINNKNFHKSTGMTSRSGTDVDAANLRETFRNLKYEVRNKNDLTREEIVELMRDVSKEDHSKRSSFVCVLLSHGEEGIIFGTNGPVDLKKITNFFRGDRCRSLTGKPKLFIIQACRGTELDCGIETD
T2 sequence (P42574 176-277 limits assumed): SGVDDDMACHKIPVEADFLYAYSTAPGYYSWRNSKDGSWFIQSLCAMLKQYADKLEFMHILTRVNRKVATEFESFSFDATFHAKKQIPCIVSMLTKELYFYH
Protocol: Caspase 3 was diluted in Caspase 3 buffer (100 mM Hepes pH 7.5; 10% sucrose; 0.1% CHAPS). Compounds stocks (100 mM) were stored at −20° C. in DMSO. Compounds were tested at different concentrations: from 200 μM to 91 nM.
as §1, with “caspase 3 specificity assay” for “UCH-L3”, “250” for “300”, “(Ac-DEVD-AMC; Promega).” for “Ub-AMC (Boston Biochem).”, “(Caspase 3)” for “(UCH-L3)”, “1.6 nM.” for “13 pM.”

[2] = system: HCT116 colon cancer cells; assay: HCT116 cell viability and proliferation assay (MTS); type: cell-based; conditions: Homo sapiens, HCT-116, HCT116, 72 hours, read-out: Cell viability (MTS): HCT116 GI50 Day 3
Protocol: HCT116 colon cancer cells were obtained from ATCC (American Type Culture Collection), and maintained in Mc Coy's 5A medium containing 10% FBS, 3 mM glutamine and 1% penicillin/streptomycin. Cells were incubated at 37° C. in a humidified atmosphere containing 5% CO2.
Cell viability was assayed using the MTS technique in 96-well culture plates (CellTiter 96® Aqueous Non-Radioactive Cell Proliferation Assay, Promega) according to the manufacturer's instructions. MTS (3-(4,5-dimethyl-thiazol-2-yl)-5-(3-carboxy-methoxyphenyl)-2-(4-sulfophenyl)-2H-tetra-zolium) is a MTT-derived tetrazolium that is reduced in metabolically active cells into a soluble, cell-permeant formazan. The amount of formazan, detected by its absorbance at 492 nm is proportional to the number of living, metabolically active cells.
10^3 HCT116 cells were seeded per well. 24 hours later, the medium was changed and the cells treated in triplicate with the concentrations of each compound from 100 μM to 50 nM. The compounds were diluted in 100% DMSO, whose final concentration on cells was kept at 0.5%.
Cells were incubated with the compounds for 72 hours, and their viability then assayed by the addition of MTS for 2 hours. Absorbance at 492 nm was measured directly from the 96-well culture plates. GI50 (Growth Inhibition 50) concentrations for each compound were calculated using a sigmoidal variable slope fit (Prism 4.0, Graphpad Softwares). Values represent mean of three independent experiments.

USP7 [3] = target: T3, USP7 (Homo sapiens, UniProt Q93009); assay: Direct binding to USP7 by ESI-MS; conditions: 50/50/1 H2O/CH3CN/HCOOH, Vc=120 V, Pi=4 mbar
T3 sequence (Q93009 whole entry): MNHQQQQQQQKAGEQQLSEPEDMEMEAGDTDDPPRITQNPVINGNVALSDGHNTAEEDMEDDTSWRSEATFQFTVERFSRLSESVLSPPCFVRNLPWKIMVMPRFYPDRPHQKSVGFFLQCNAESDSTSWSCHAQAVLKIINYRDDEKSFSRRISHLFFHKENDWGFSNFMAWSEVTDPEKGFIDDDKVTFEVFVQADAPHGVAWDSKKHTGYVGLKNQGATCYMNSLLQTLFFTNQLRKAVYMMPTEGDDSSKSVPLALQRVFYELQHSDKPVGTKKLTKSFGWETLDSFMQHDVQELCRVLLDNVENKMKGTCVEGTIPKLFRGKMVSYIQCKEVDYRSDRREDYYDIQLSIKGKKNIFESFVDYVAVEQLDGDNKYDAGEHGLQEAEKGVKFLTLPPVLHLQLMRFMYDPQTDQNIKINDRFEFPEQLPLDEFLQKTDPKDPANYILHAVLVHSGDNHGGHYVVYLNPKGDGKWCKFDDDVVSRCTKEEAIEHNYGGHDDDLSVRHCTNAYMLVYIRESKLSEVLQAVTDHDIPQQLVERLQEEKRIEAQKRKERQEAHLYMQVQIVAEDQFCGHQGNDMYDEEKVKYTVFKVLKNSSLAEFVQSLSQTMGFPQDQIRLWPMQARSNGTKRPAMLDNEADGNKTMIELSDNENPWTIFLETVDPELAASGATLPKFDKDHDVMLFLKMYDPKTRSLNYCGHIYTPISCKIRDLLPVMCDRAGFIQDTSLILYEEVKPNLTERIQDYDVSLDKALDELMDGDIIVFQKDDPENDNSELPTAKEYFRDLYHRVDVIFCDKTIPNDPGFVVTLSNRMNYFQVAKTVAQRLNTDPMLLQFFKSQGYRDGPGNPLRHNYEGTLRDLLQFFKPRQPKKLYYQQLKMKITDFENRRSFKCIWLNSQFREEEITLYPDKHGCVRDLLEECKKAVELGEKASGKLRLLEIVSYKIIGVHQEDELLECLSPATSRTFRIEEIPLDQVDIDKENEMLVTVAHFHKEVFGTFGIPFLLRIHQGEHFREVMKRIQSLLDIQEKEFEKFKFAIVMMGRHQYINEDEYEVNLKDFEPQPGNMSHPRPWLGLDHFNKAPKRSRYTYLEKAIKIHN

USP7 [4] = target: T3, USP7; assay: HAUbVS competition assay in HEK293 cell lysates, USP7; type: biochemical; conditions: for blocking of HAUbVS labeling of USP7 (anti-USP7 antibody): HEK293 cell lysates, 12.5-200 μM, dose-dependent; for anti-HA immunoblot band at the size corresponding to HA-Ub-VS-USP7: lysed HEK293 cells, different doses, no change of the other bands
USP10 = USP10 (Homo sapiens, UniProt Q14694); assay: HAUbVS competition assay in HEK293 cell lysates, USP10; type: biochemical; conditions: 12.5-200 μM
Chain of USP10 (Q14694 whole entry): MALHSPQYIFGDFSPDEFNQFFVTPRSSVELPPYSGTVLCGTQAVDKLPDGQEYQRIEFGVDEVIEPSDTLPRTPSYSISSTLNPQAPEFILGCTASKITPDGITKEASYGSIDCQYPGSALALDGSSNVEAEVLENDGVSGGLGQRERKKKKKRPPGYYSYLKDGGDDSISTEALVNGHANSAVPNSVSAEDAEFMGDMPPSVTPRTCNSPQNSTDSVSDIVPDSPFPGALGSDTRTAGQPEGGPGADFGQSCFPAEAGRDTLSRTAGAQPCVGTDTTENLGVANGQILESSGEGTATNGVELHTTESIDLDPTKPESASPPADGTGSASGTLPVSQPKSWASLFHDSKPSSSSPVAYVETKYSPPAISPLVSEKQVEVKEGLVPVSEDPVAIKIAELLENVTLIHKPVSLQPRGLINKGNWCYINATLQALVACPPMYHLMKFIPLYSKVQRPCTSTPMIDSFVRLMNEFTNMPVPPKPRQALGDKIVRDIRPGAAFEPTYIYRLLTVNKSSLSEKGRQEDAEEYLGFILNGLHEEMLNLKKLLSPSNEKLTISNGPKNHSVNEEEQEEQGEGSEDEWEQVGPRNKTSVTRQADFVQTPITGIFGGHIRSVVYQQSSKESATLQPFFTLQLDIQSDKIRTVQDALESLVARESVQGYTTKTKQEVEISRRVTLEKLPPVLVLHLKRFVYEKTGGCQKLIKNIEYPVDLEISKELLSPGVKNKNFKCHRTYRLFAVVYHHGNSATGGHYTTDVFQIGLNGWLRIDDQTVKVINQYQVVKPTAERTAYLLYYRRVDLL

UCH-L3 [5] = target: T1, UCH-L3; assay: HAUbVS competition assay in HEK293 cell lysates, UCH-L3; type: biochemical; conditions: 12.5-200 μM

SMILES	IC50 (UCH-L3 [1]) [µM]	IC50 (Caspase 3) [µM]	GI50 [2] [µM]	binding to USP7 under dissociating conditions (USP7 [3])	blocking of HAUbVS labeling of USP7 (anti-USP7 antibody) (USP7 [4])	anti-HA immunoblot band at the size corresponding to HA-Ub-VS-USP7 (USP7 [4])	blocking of HAUbVS labeling of USP10 (USP10)	blocking of HAUbVS labeling of UCH-L3 (UCH-L3 [5])
O=C(CCc1ccccc1)N1CCC(O)(Cn2cnc3ccccc3c2=O)CC1 [Example 1, 3-{[4-hydroxy-1-(3-phenylpropanoyl)piperidin-4-yl]methyl}-3,4-dihydroquinazolin-4-one]	> 200	> 200	> 500	no binding was observed				
O=C(CCc1ccccc1)N1CCC(O)(Cn2cnc3cc(Cl)ccc3c2=O)CC1 [Example 2, 7-chloro-3-{[4-hydroxy-1-(3-phenylpropanoyl)piperidin-4-yl]methyl}-3,4-dihydroquinazolin-4-one]	> 200	> 200	67	no binding was observed	efficiently blocked labeling of USP7	almost completely eliminated	without any cross-reaction	without any cross-reaction
O=C(CCC1CCCC1)N1CCC(O)(Cn2cnc3ccccc3c2=O)CC1 [Example 3, 3-{[1-(3-cyclopentylpropanoyl)-4-hydroxypiperidin-4-yl]methyl}-3,4-dihydroquinazolin-4-one]	> 200	> 200	93	no binding was observed				
O=C(CCC1CCCC1)N1CCC(O)(Cn2cnc3cc(Cl)ccc3c2=O)CC1 [Example 4, 7-chloro-3-{[1-(3-cyclopentylpropanoyl)-4-hydroxypiperidin-4-yl]methyl}-3,4-dihydroquinazolin-4-one]	> 200	> 200	19					
CC(Cc1cccs1)C(=O)N1CCC(O)(Cn2cnc3ccccc3c2=O)CC1 (stereo not drawn) [Example 5, 3-({4-hydroxy-1-[2-methyl-3-(thiophen-2-yl)propanoyl]piperidin-4-yl}methyl)-3,4-dihydroquinazolin-4-one]	> 200	> 200	113	no binding was observed	efficiently blocked labeling of USP7	almost completely eliminated	without any cross-reaction	without any cross-reaction
CC(C)C(=O)N1CCC(O)(Cn2cnc3ccccc3c2=O)CC1 [Example 6, 3-{[4-hydroxy-1-(2-methylpropanoyl)piperidin-4-yl]methyl}-3,4-dihydroquinazolin-4-one]	> 200	> 200						
COc1cc2ncn(CC3(O)CCN(C(=O)C(C)C)CC3)c(=O)c2cc1OC [Example 7, 3-{[4-hydroxy-1-(2-methylpropanoyl)piperidin-4-yl]methyl}-6,7-dimethoxy-3,4-dihydroquinazolin-4-one]	> 200	> 200	> 500					
CCC(CC)C(=O)N1CCC(O)(Cn2cnc3cc(Cl)ccc3c2=O)CC1 [Example 9, 7-chloro-3-{[1-(2-ethylbutanoyl)-4-hydroxypiperidin-4-yl]methyl}-3,4-dihydroquinazolin-4-one]	> 200	> 200						
COc1ccccc1CCC(=O)N1CCC(O)(Cn2cnc3ccccc3c2=O)CC1 [Example 10, 3-({4-hydroxy-1-[3-(2-methoxyphenyl)propanoyl]piperidin-4-yl}methyl)-3,4-dihydroquinazolin-4-one]	> 200	> 200						
CC(Cc1cccs1)C(=O)N1CCC(O)(Cn2cnc3cc(Cl)ccc3c2=O)CC1 (stereo not drawn) [Example 11, 7-chloro-3-({4-hydroxy-1-[2-methyl-3-(thiophen-2-yl)propanoyl]piperidin-4-yl}methyl)-3,4-dihydroquinazolin-4-one]	> 200	> 200	25					
O=C(CCc1cccs1)N1CCC(O)(Cn2cnc3ccccc3c2=O)CC1 [Example 12, 3-({4-hydroxy-1-[3-(thiophen-2-yl)propanoyl]piperidin-4-yl}methyl)-3,4-dihydroquinazolin-4-one]	> 200	> 200	253					
CC(Cc1ccccc1)C(=O)N1CCC(O)(Cn2cnc3ccccc3c2=O)CC1 (stereo not drawn) [Example 13, 3-{[1-(2-benzylpropanoyl)-4-hydroxypiperidin-4-yl]methyl}-3,4-dihydroquinazolin-4-one]	> 200	> 200	103					
CC(Cc1ccccc1)C(=O)N1CCC(O)(Cn2cnc3cc(Cl)ccc3c2=O)CC1 (stereo not drawn) [Example 14, 3-{[1-(2-benzylpropanoyl)-4-hydroxypiperidin-4-yl]methyl}-7-chloro-3,4-dihydroquinazolin-4-one]	> 200	> 200	28					
